Data taken from patent US20020137929A1, “1 - (3-heterocyclylphenyl) isothiourea, -isourea, -guanidine and -amidine herbicidal agents” (Intellectual Property Department, BASF Aktiengesellschaft, priority 1998, published 2002).

How the values were obtained:
[1] = system: ZEAMX (Corn, Field); test: Preemergence herbicidal evaluation; assay type: in vivo, Zea mays; details: rated 4-5 weeks after treatment
Summary of the method: (§1)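 Steps: mix seeds into potting soil; plant atop ~1 inch soil; spray compound in aqueous acetone (~0.0156-0.500 kg/ha equivalent); maintain in greenhouse with watering; rate visually 0-9 versus control at 4-5 weeks.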

[2] = system: CASOB (Sicklepod); test: Preemergence herbicidal evaluation; assay type: in vivo, Cassia obtusifolia; details: rated 4-5 weeks after treatment
Summary of the method: as §1

[3] = system: CYPIR (Rice Flatsedge); test: Preemergence weed control under flooded paddy conditions; assay type: in vivo, Cyperus iria; details: rated 3-4 weeks after treatment
Summary of the method: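 Visual injury scored 0-9 against control three to four weeks post-treatment, greenhouse-grown. Application: acetone/water (50/50) solutions dosed directly into flood water (1.5-3 cm over silt loam, planted top 0.5 cm), roughly 0.0313 to 0.500 kg/ha active ingredient.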

[4] = system: CYPSE (Flatsedge); test: Postemergence weed control under flooded paddy conditions; assay type: in vivo, Cyperus serotinus; details: postemergence weeds, rated 3 to 4 weeks after treatment
Summary of the method: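 Flood-water application, about 0.0313–0.500 kg/ha a.i. in aqueous/acetone 50/50 v/v; water depth 1.5–3 cm throughout. Weeds 3–5 cm, rice 1.5–2.5 leaf. Greenhouse; 0–9 visual rating vs control at 3–4 wk.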

[5] = system: CASOB (Sicklepod); test: Postemergence herbicidal evaluation; assay type: in vivo, Cassia obtusifolia; details: postemergence
Summary of the method: (§2)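 Two-week-old seedlings sprayed with compound in 50/50 acetone/water plus 0.5% TWEEN 20, at about 0.0156 to 0.500 kg/ha, nozzle at 40 psi. Kept in greenhouse; rated visually 4-5 weeks after treatment on a 0-9 scale versus control, repeat tests averaged.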

[6] = system: ORYSAT (Rice, Tebonnet); test: Postemergence herbicidal evaluation; assay type: in vivo, Oryza sativa, (L.) Tebonnet; details: postemergence
Summary of the method: as §2

[7] = system: CHEAL (Lambsquarters, Common); test: Postemergence herbicidal evaluation; assay type: in vivo, Chenopodium album; details: postemergence
Summary of the method: as §2

[8] = system: GLXMAW (Soybean, Williams); test: Postemergence herbicidal evaluation; assay type: in vivo, Glycine max, (L.) Merr. cv Williams; details: postemergence
Summary of the method: as §2

[9] = system: GALAP (Galium); test: Preemergence herbicidal evaluation; assay type: in vivo, Galium aparine; details: rated 4-5 weeks after treatment
Summary of the method: as §1

[10] = system: SETVI (Foxtail, Green); test: Postemergence herbicidal evaluation; assay type: in vivo, Setaria viridis; details: postemergence
Summary of the method: as §2

[11] = system: SAGPY (Arrowhead (Pygmaea)); test: Preemergence weed control under flooded paddy conditions; assay type: in vivo, Sagittaria pygmaea; details: rated 3-4 weeks after treatment
Summary of the method: (§3)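 Ratings on a 0-9 visual scale cover stand, vigor, malformation, size, chlorosis and overall appearance relative to a control, taken three to four weeks post-treatment. Application was into flood water over freshly sown silt loam at roughly 0.0313 to 0.500 kg/ha.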

[12] = system: AMBEL (Ragweed, Common); test: Postemergence herbicidal evaluation; assay type: in vivo, Ambrosia artemisifolia; details: postemergence
Summary of the method: as §2

[13] = system: GALAP (Galium); test: Postemergence herbicidal evaluation; assay type: in vivo, Galium aparine; details: postemergence
Summary of the method: as §2

[14] = system: ECHCG (Barnyardgrass); test: Postemergence herbicidal evaluation; assay type: in vivo, Echinochloa crus-galli; details: postemergence
Summary of the method: as §2

[15] = system: CYPSE (Flatsedge); test: Preemergence weed control under flooded paddy conditions; assay type: in vivo, Cyperus serotinus; details: rated 3-4 weeks after treatment
Summary of the method: as §3

## CC(C)S(=O)(=O)NC(=O)CC1SC(=Nc2cc(-n3c(=O)cc(C(F)(F)F)n(C)c3=O)c(F)cc2Cl)N(C)C1=O (centres unmarked) [Compound 119, 2-{{2-Chloro-5-[3,6-dihydro-3-methyl-2,6-dioxo-4-(trifluoromethyl)-1(2H)-pyrimidinyl]-4-fluorophenyl}imino}-N-(isopropylsulfonyl)-3-methyl-4-oxo-5-thiazolidineacetamide]
[1]; rate 0.0156 kg/ha
  Preemergence herbicidal rating ZEAMX: 0.0
[1]; rate 0.0313 kg/ha
  Preemergence herbicidal rating ZEAMX: 0.0
[1]; rate 0.0625 kg/ha
  Preemergence herbicidal rating ZEAMX: 0.0
[1]; rate 0.1250 kg/ha
  Preemergence herbicidal rating ZEAMX: 0.0
[1]; rate 0.2500 kg/ha
  Preemergence herbicidal rating ZEAMX: 1.0
[2]; rate 0.0156 kg/ha
  Preemergence herbicidal rating CASOB: 0.0
[2]; rate 0.0313 kg/ha
  Preemergence herbicidal rating CASOB: 0.0
[2]; rate 0.0625 kg/ha
  Preemergence herbicidal rating CASOB: 0.0
[2]; rate 0.2500 kg/ha
  Preemergence herbicidal rating CASOB: 3.0
[3]; 0.0313 kg/ha
  herbicidal effect rating, CYPIR: 4.5
[3]; 0.0625 kg/ha
  herbicidal effect rating, CYPIR: 7.0
[3]; 0.1250 kg/ha
  herbicidal effect rating, CYPIR: 8.5
[3]; 0.2500 kg/ha
  herbicidal effect rating, CYPIR: 8.0
[4]; Rate 0.0313 kg/ha
  Herbicidal rating CYPSE: 0.0
[4]; Rate 0.0625 kg/ha
  Herbicidal rating CYPSE: 0.0
[4]; Rate 0.1250 kg/ha
  Herbicidal rating CYPSE: 0.0
[5]; rate 0.0156 kg/ha
  Herbicidal rating CASOB: 3.0
[5]; rate 0.0313 kg/ha
  Herbicidal rating CASOB: 5.0
[5]; rate 0.0625 kg/ha
  Herbicidal rating CASOB: 7.0
[6]; rate 0.0156 kg/ha
  Herbicidal rating ORYSAT: 1.5
[6]; rate 0.0313 kg/ha
  Herbicidal rating ORYSAT: 2.0
[6]; rate 0.0625 kg/ha
  Herbicidal rating ORYSAT: 3.0
[7]; rate 0.0156 kg/ha
  Herbicidal rating CHEAL: 9.0
[7]; rate 0.0313 kg/ha
  Herbicidal rating CHEAL: 9.0
[7]; rate 0.0625 kg/ha
  Herbicidal rating CHEAL: 9.0
[8]; rate 0.0156 kg/ha
  Herbicidal rating GLXMAW: 7.0
[8]; rate 0.0313 kg/ha
  Herbicidal rating GLXMAW: 8.5
[8]; rate 0.0625 kg/ha
  Herbicidal rating GLXMAW: 8.5
[9]; rate 0.0156 kg/ha
  Preemergence herbicidal rating GALAP: 0.0
[9]; rate 0.0313 kg/ha
  Preemergence herbicidal rating GALAP: 0.0
[9]; rate 0.0625 kg/ha
  Preemergence herbicidal rating GALAP: 0.0
[9]; rate 0.1250 kg/ha
  Preemergence herbicidal rating GALAP: 0.0
[9]; rate 0.2500 kg/ha
  Preemergence herbicidal rating GALAP: 4.0
[10]; rate 0.0156 kg/ha
  Herbicidal rating SETVI: 3.0
[10]; rate 0.0313 kg/ha
  Herbicidal rating SETVI: 9.0
[10]; rate 0.0625 kg/ha
  Herbicidal rating SETVI: 9.0
[11]; 0.0313 kg/ha
  herbicidal effect rating, SAGPY: 2.5
[11]; 0.0625 kg/ha
  herbicidal effect rating, SAGPY: 3.0
[11]; 0.1250 kg/ha
  herbicidal effect rating, SAGPY: 3.5
[11]; 0.2500 kg/ha
  herbicidal effect rating, SAGPY: 4.5
[12]; rate 0.0156 kg/ha
  Herbicidal rating AMBEL: 9.0
[12]; rate 0.0313 kg/ha
  Herbicidal rating AMBEL: 9.0
[12]; rate 0.0625 kg/ha
  Herbicidal rating AMBEL: 9.0
[13]; rate 0.0156 kg/ha
  Herbicidal rating GALAP: 1.0
[13]; rate 0.0313 kg/ha
  Herbicidal rating GALAP: 1.0
[13]; rate 0.0625 kg/ha
  Herbicidal rating GALAP: 3.0
[14]; rate 0.0156 kg/ha
  Herbicidal rating ECHCG: 0.0
[14]; rate 0.0313 kg/ha
  Herbicidal rating ECHCG: 0.0
[14]; rate 0.0625 kg/ha
  Herbicidal rating ECHCG: 1.0
[15]; 0.0313 kg/ha
  herbicidal effect rating, CYPSE: 0.0
[15]; 0.0625 kg/ha
  herbicidal effect rating, CYPSE: 0.0
[15]; 0.1250 kg/ha
  herbicidal effect rating, CYPSE: 0.0
[15]; 0.2500 kg/ha
  herbicidal effect rating, CYPSE: 1.0
